Experimental data as given in PMC4125160, “Neurotoxicity and Mode of Action of N, N-Diethyl-Meta-Toluamide (DEET)” (PLoS ONE, 2014).
Where two headings read alike, the source gives them in different places.

Tests used:
Aedes aegypti = assay: Topical toxicity bioassay on adult females; type: in vivo; conditions: for signs of intoxication: DEET lethal doses, propoxur 1 ng/insect, five minutes after treatment; for LD50 (95% CI): topical application, ng of compound/mg body weight, 24 hr
Method: Topical toxicity bioassays on adult female mosquitoes were performed based on the method of Pridgeon et al.. Briefly, insects were chilled on ice for 3 min, during which the appropriate volume (200 nL for mosquitoes, 1 µL for Musca) of chemical (dissolved in 95% ethanol) was applied onto the abdomen using a handheld Hamilton microapplicator. For each inhibitor, five doses were applied to groups of ten insects each and repeated three times. An ethanol-only treatment was included in each experiment as a negative control. Insects were transferred into a holding chamber post-treatment and supplied with free access to sugar water for the duration of the experiment. […] Three LD50 values were obtained and the mean LD50 value was calculated and used for statistical analysis.
For all toxicity assays, control mortality was corrected for using Abbots formula [19]; where corrected percent mortality = (% alive in control–% alive in treated) /% alive in control.

[1] = target: T1, AKRON AgAChE (G119S AChE mutation) (Anopheles gambiae, UniProt Q869C3, G280S); assay: AChE inhibition, Ellman assay; type: biochemical
T1 construct: Homogenate enzymes were prepared from groups of ten non-blood fed adult female mosquitoes; from tissue; host or cells: whole adult female mosquitoes, AKRON strain, supernatant of homogenate
Excerpt: (§1) In vitro biochemical assays utilized five acetylcholinesterase (AChE) enzymes. Recombinant human AChE (hAChE) was purchased from a commercial source (lyophilized powder, Sigma C1682, St. Louis, MO, USA). Homogenates to prepare Anopheles gambiae AChE (AgAChE) were obtained from the wild type G3 strain and the resistant AKRON strain (BEI Resources; http://www.beiresources.org/). AKRON mosquitoes (from Benin and donated by M. Akogbeto) have both knockdown resistance (kdr) to pyrethroids (L1014F sodium channel mutation) and the G119S AChE mutation (ace-1R), which confers resistance to carbamates, [15]. Both strains were cultured in the Emerging Pathogens Institute, University of Florida, Gainesville, FL, USA from eggs provided by the Center for Disease Control, Atlanta, GA, USA. Homogenates were also used to prepare Aedes aegypti AChE (AeAChE) from mosquitoes provided by the CMAVE, USDA-ARS, Gainesville, FL, USA; Musca domestica AChE (MdAChE) from flies cultured in the Department of Entomology and Nematology, Medical Entomology Laboratory, University of Florida, Gainesville, FL, USA); and Drosophila melanogaster AChE (DmAChE) from flies (Oregon-R strain) cultured in the Emerging Pathogens Institute, University of Florida, Gainesville, FL, USA. Homogenate enzymes were prepared from groups of ten non-blood fed adult female mosquitoes, five whole bodied Drosophila, or three Musca heads homogenized in 1 mL of ice-cold sodium phosphate buffer (0.1 M sodium phosphate, pH 7.8) with an electric motor driven glass tissue homogenizer. The homogenate was centrifuged at 5000×g using a Sorvall Fresco refrigerated centrifuge at 4 °C for 5 minutes. The supernatant was used as the enzyme source, and all enzyme preparations contained 0.3% (v/v) triton X-100 and 1 mg/ml BSA. Prior to use, the recombinant human enzyme was diluted 500-fold into sodium phosphate buffer containing triton X-100 and 1 mg/ml BSA.
(§2) Inhibition of AChE was determined using the Ellman assay and was based on the method outlined in Carlier et al.. Briefly, enzyme solution (10 µL) was added to each well of a 96-well micro assay plate, along with 20 µL of inhibitor in DMSO/saline suspension, and 150 µL of sodium phosphate buffer. Final concentration of DMSO was 0.1% in all incubations. The plate was incubated at 25 °C for ten minutes. Ellman assay reagents, acetylthiocholine iodide (0.4 mM, final concentration) and 5,5′-dithiobis-(2-nitro)benzoic acid (0.3 mM, final concentration), were prepared fresh and 20 µL was added to the enzyme to initiate the reaction. Changes in absorbance were recorded by a DYNEX Triad spectrophotometer (DYNEX Technologies, Chantilly, VA, USA) at 405 nm. Enzyme concentrations used were within the linear range, therefore eliminating the need for protein quantification.

[2] = target: Musca domestica AChE (MdAChE) (Musca domestica, UniProt Q7YWJ9); assay: AChE inhibition, Ellman assay; type: biochemical
Excerpt: as §1, §2

[3] = target: T2, Recombinant human AChE (hAChE) (Homo sapiens, UniProt P22303); assay: AChE inhibition, Ellman assay; type: biochemical; conditions: mean, n = 3; read-out: IC50 (95% CI)
T2 construct: purchased Sigma C1682
Excerpt: as §1, §2

firefly light organ = assay: In vivo assay for effects on firefly light organ; set-up: species or system Photinus pyralis
Method: Adult firefly beetles (Photinus sp.) were collected locally (Nashville, TN) and housed in well-ventilated chambers with tree leaves. The animals had free access to 10% sucrose solution. Chemicals were dissolved in absolute ethanol and 1 µL was topically applied directly to the ventral light organ with the use of a manual pipettor. Prior to DEET application, the beetles were immobilized with molten parafilm and were mounted on corrugated cardboard for the duration of the study. Due to the time required for bioactivation of CDM, insects were treated with 1 µL of CDM and were released back into the holding chamber for three hours. After three hours, they were mounted in the previously described manner and monitored for activation of the lantern. Photographs were captured with a handheld camera (Canon PowerShot SX110 IS). Pictures were captured within five minutes, four hours, and 10 minutes post application for DEET, CDM, and propoxur, respectively. DEET- and propoxur-treated insects were monitored for at least 1 hour post exposure to ensure the response was not slow acting. The original photographs were cropped and background shadows were enhanced to increase detail of the insect using Adobe Photoshop PS5 (Adobe Systems, San Jose, CA, USA). The color or brightness of the light organ was not manipulated in any way during post-processing of the image.

[4] = tested on: neuromuscular junction of third instar Musca domestica larvae; assay: Neuromuscular junction recordings of evoked EPSP in housefly larvae; conditions: for effect on evoked EPSP in words: toluene at 5 mM
Method: Neuromuscular recordings of the evoked excitatory postsynaptic potential (EPSP) were performed on third instar housefly larvae, essentially as described previously. In short, the maggot was immobilized with pins, and the nervous and musculature systems were exposed. The preparation was then bathed in saline containing: 140 mM NaCl, 0.75 mM CaCl2, 5 mM KCl, 4 mM MgCl2, 5 mM NaHCO3, and 5 mM HEPES (pH = 7.25). The nerves were severed from the base of the CNS, which was removed, and a lateral nerve trunk innervating the longitudinal muscles was drawn into a suction electrode filled with saline. Stimuli were applied at 1 volt and of 0.2 sec duration to elicit a contraction from the longitudinal muscles. The stimulated muscle was then impaled with a recording glass capillary microelectrode filled with 1 M KCl to record effects on the evoked EPSP and membrane potential. Signals from all recordings were amplified and digitized with the use of the MacLab. Chemicals were applied to the preparation directly by hand pipetting 150 µL of solution into the bath volume of 150 µL.

| SMILES | signs of intoxication (Aedes aegypti) | LD50 (95% CI) (Aedes aegypti) | IC50 [1] [mM] | IC50 ([2]; mean, n = 3; read-out: IC50 (95% CI)) [mM] | IC50 [3] [mM] | lantern illumination (firefly light organ; 5 µg topically on light organ) | period the lantern remained active (firefly light organ; 5 µg, majority of individuals) [s] | lantern illumination (firefly light organ; 1 and 2.5 µg topically on light organ) | interval of repeated activation of the lantern (firefly light organ; controls flashed every 45-90 seconds) [s] | time to complete block ([4]; 10 mM added to the bath) | change in muscle membrane resting potential ([4]; any concentration) | concentration at which half of the preparations were blocked ([4]; evoked EPSP, all or none response) | effect on evoked EPSP in words [4] | fold more potent than the IC50 value of DEET to MdAChE ([2]; mean IC50) | IC50 ([2]; read-out: IC50 (95% CI); mean, n = 3) [mM] | lantern illumination (firefly light organ; 1 µg topically on light organ) |
| --- | --- | --- | --- | --- | --- | --- | --- | --- | --- | --- | --- | --- | --- | --- | --- | --- |
| CCN(CC)C(=O)c1cccc(C)c1 [DEET, N, N-diethyl-meta-toluamide] | both hyperexcitatory and lethargic tendencies | 1102 (836–1367)a ng/mg | > 10 | 6 | 12 | Bright and complete illumination of the lantern | 10 to 60 | Faint illumination in circumscribed areas of the lantern | 10 to 20 | approximately 120 seconds | Little or no change | ca. 7 mM | complete and rapid block |  |  |  |
| CNC(=O)Oc1ccccc1OC(C)C [propoxur] | intense hyperexcitation in the absence of any physical stimulation | 1.4 (95% CI: 0.9–2.1) ng/mg | > 0.1 |  | 0.00144 |  |  |  |  |  |  |  | no effect | 40,000 fold | 0.00013 | no changes in lantern illumination |
